Reference: PMC10759609, “A novel PDPN antagonist peptide CY12-RP2 inhibits melanoma growth via Wnt/β-catenin and modulates the immune cells” (Journal of Experimental & Clinical Cancer Research : CR, 2024)
Read-outs that look alike come from different tables or passages of the source. Peptide text beside a SMILES is read from it.

Legend:
[1] = system: immune cells in lungs and spleens; assay: Immunofluorescence of immune cell infiltration, spleen and lung, lung metastasis model; assay type: in vivo, BALB/c mice
Protocol: Immunofluorescence analysis was used for antigen localization and quantification. For PDPN immunofluorescence staining, melanoma cells (A375, A875) were seeded in coverslips, cultured for 24 h, and fixed using 4% paraformaldehyde for 15 min at room temperature (RT). The cells were then permeabilized with 0.2% Triton X-100 in PBS for 10 min. Cells were blocked using 1% bovine serum albumin (BSA) in PBS for 30 min at RT, and incubated with the primary antibody overnight at 4 ℃. Afterwards, cells were washed three times with PBS containing 0.01% Triton X-100 for 5 min, and incubated with Alexa Fluor 568–conjugated secondary antibodies at RT for 1 h. Lastly, the nuclei were dyed with 4’,6-diamidino-2-phenylindole (DAPI) for 5 min at RT, and the slides were imaged using a NIKON laser scanning confocal microscope. To further verify the specificity binding ability of CY12-RP2 with PDPN, immunofluorescence was detected for analysis in melanoma cells. Briefly, A375 or A875 cells were incubated with CY12-RP2 at a concentration of 5 μM for 10 h at 37 ℃, and then washed with DMEM to remove the unbound peptide. The anti-PDPN primary antibody was then incubated for 4 h at RT. Further experimental procedures were performed as described above. To determine the immune cell infiltration and proportion changes in the lungs and spleens in the pulmonary metastasis mouse model, sequential frozen slices (12 μm) were prepared and incubated with CD3, CD4, CD8, Foxp3, CD56, F4/80, and CD11c primary antibodies for 1 h, and then incubated with Alexa Fluor 488-conjugated goat anti-mouse F(ab’)2 and Alexa Fluor 647-conjugated goat anti-mouse F(ab’)2 in PBS containing 1% BSA and 1% goat serum for 30 min. All incubations were conducted under coverslips at RT, and then repeatedly washed 3 times with PBS. Coverslips were mounted after staining cell nuclei with DAPI, and imaged using a NIKON laser scanning confocal microscope.

A875 cells [2] = assay type: cell-based
Protocol: (§1) Cell viability was determined using a CCK8 kit. Melanoma cells were plated into 96-well plates at a density of 5 × 10^3 cells/well. The cells were then treated with peptides at the determined concentrations for 24, 48, and 72 h. The CCK-8 (10 μL/ well) was pipetted into each well and the cells were incubated at 37 °C for 1~3 h. The viable cells were calculated by performing absorbance readings at 450 nm using a microplate reader (BioTek).

A375 cells = assay type: cell-based
Protocol: as §1

A875 cells [3] = assay: Colony formation, A875; assay type: cell-based
[4] = system: cytokines in mouse plasma; assay: Plasma cytokines in lung metastasis model (ELISA); assay type: in vivo, BALB/c mice; conditions: lung metastases model, vs control
Protocol: The levels of major inflammatory cytokines, including TNF-α, IL-1β, IL-2, TGF-β, IFN-γ, and IL-10, were measured using an ELISA kit (Shenzhen Ziker Biological Technology, Shenzen, China). Briefly, culture supernatants of cells and serum of pulmonary metastasis mouse model were respectively collected and added to an antibody pre-coated 96-well plates, and then followed up according to the manufacturer's instructions.
For pulmonary metastasis assays, 6- to 8-week-old female BALB/c mice were administered with 5 × 10^5 B16F10-Luc cells via tail vein to establish an experimental pulmonary metastasis model of melanoma. CY12-RP2 was administered to the mice intravenously at high and low doses (25 mg/kg and 100 mg/kg) every two days, and the mice were sacrificed after 15 days of treatment. Pulmonary metastases were evaluated using bioluminescence imaging on the 2nd, 5th, 10th, 15th and 20th day after B16F10-Luc cells injection. Subsequently, the BALB/c mice were sacrificed, and the organs including the heart, liver, spleen, lung, and kidney were collected and imaged for evaluation of micrometastases. The xenografts and organs were kept in a 4% paraformaldehyde solution for subsequent histological assays.

Ki67 = Ki67 fluorescence staining of xenograft tumors; assay type: in vivo, BALB/c nude mice; conditions: A375 xenograft tumors
Protocol: Fig. S4: The inhibition of cells metastasis and invasion by CY12-RP2 can be […]
(A, B) The inhibition of CY12-RP2 on the migration capacity of melanoma cell lines was reversed by SKL2001 (A). Statistical analysis was performed to determine the migrated distance (B). The power field scale bar, 100 μm. (C, D) Effect of CY12-RP2 on the invasive ability of melanoma cell lines were reversed by SKL2001 (C).
Statistical analysis was performed to count the invaded cells (D). The power field scale bar, 100 μm. (E) Western blot assay was also performed to detect the proteins related to EMT and Wnt/β-catenin signaling pathway, including N-cadherin, Vimentin, snail, Dvl2, Phospho-β-catenin-S675, β-catenin, Phospho-GSK3β-Ser9 and GSK3β by CY12-RP2 with or without SKL2001 (50 μM). Data are presented as mean ± SD. *p < […]
Fig. S5: Effects and toxicity of CY12-RP2 in vivo
(A) TUNEL analysis of apoptosis was conducted on orthotopic xenografts tumor sections using fluorescence staining. The power field scale bar, 100 μm. (B) Fluorescence staining of Ki67 was carried out on orthotopic xenograft tumor sections.
The power field scale bar, 100 μm. (C) Serum His-CY12-RP2 levels of the orthotopic xenografts mice treated by various dosage of CY12-RP2 were measured by His-ELISA kit. […]
kit. (E) Serum ALT, AST, TG, and γ-GT levels of the orthotopic xenografts model were measured by ELISA. […]

SMILES: CC(C)C[C@H](NC(=O)[C@H](Cc1ccc(O)cc1)NC(=O)[C@@H](N)[C@@H](C)O)C(=O)N[C@@H](CS)C(=O)N[C@H](C(=O)N[C@@H](C)C(=O)N[C@@H](CS)C(=O)N[C@@H](CC(=O)O)C(=O)N[C@@H](Cc1ccc(O)cc1)C(=O)N[C@H](C(=O)N[C@@H](Cc1c[nH]cn1)C(=O)N[C@@H](Cc1c[nH]cn1)C(=O)O)[C@@H](C)O)[C@@H](C)O [CY12-RP2] (H-TYLCTACDYTHH-OH; N-terminus and C-terminus assumed)
- M2-type macrophages ([1]; immunofluorescence): decreased proportion
- NK cells and M1-type macrophages ([1]; immunofluorescence): increased proportions
- infiltration of CD3 + CD4 + T cells and CD3 + CD8 + T cells ([1]; multiplex immunofluorescence): remarkable increase
- infiltration of Treg cells ([1]; multiplex immunofluorescence): reduction
- IC50 (A875 cells [2]; 48 h): 654 µM
- IC50 (A875 cells [2]; 72 h): 117 µM
- cell growth inhibition (in words) (A875 cells [2]; PDPN underexpressed A875, CCK8, various concentrations): relatively diminished impact
- IC50 (A375 cells; 24 h): 602 µM
- IC50 (A375 cells; 48 h): 118 µM
- IC50 (A375 cells; 72 h): 55.2 µM
- cell growth inhibition (in words) (A375 cells; PDPN overexpressed A375, CCK8, various concentrations): dramatically inhibited cell growth in a dose-dependent manner
- colony formation (A875 cells [3]): only having inhibitory effects on A875 cells at high concentrations
- plasma IFN-γ [4]: significantly elevated
- plasma IL-1β [4]: significantly elevated
- plasma IL-2 [4]: reduced
- plasma IL-10 [4]: reduced
- plasma TGF-β [4]: reduced
- plasma TNF-α [4]: significantly elevated
- level of Ki67 (Ki67): significantly decreased
